Measurements: US10035800B2 (AbbVie Inc., priority 2013, dated 2018)

Assays:
BRD4 (BDI_K57-E168) = target: T1, BRD4 (BDI_K57-E168) (Homo sapiens, UniProt O60885); assay: TR-FRET bromodomain binding assay, first bromodomain of BRD4; conditions: 100 nM probe
T1 construct: BD1: amino acids K57-E168; made in house
Summary of the method: (§1)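 Compound dilutions are mixed with His-tagged BRD4 bromodomain (8 nM), europium anti-His antibody (1 nM) and Alexa647 probe (BDI 100 nM; BDII 30 nM) in pH 6.0 buffer containing 2% DMSO. After equilibrating one hour at room temperature, TR-FRET is measured; percent inhibition is fitted to obtain IC50, from which Ki is calculated.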

[1] = tested on: breast cancer cell line MX-1; assay: MX-1 cell line proliferation assay; format: cell-based; conditions: MX-1 cells, 3-day proliferation assay, Cell Titer Glo; read-out: Cellular proliferation: EC50
Description: MX-1 Cell Line Proliferation Assay
The impact of compounds of the Examples on cancer cell proliferation was determined using the breast cancer cell line MX-1 (ATCC) in a 3-day proliferation assay and the data are reported in Table 1. MX-1 cells were maintained in RPMI 1640 medium (Sigma) supplemented with 10% FBS at 37 C.° and an atmosphere of 5% CO2. For compound testing, MX-1 cells were plated in 96-well black bottom plates at a density of 5000 cells/well in 90 μL of culture media and incubated at 37° overnight to allow cell adhesion and spreading. Compound dilution series were prepared in DMSO via a 3-fold serial dilution from 3 mM to 0.1 μM. The DMSO dilution series were then diluted 1:100 in phosphate buffered saline, and 10 μL of the resulted solution were added to the appropriate wells of the MX-1 cell plate. The final compound concentrations in the wells were 3, 1, 0.3, 0.1, 0.03, 0.01, 0.003, 0.001, 0.0003, and 0.0001 μM or 1, 0.3, 0.1, 0.03, 0.01, 0.003, 0.001, 0.0003, 0.0001, and 0.00003 μM.
Luminescence readings from the Cell Titer Glo assay were normalized to the DMSO treated cells and analyzed using the GraphPad Prism software with sigmoidal curve fitting to obtain EC50s. The minimum significant ratio (MSR) was determined to evaluate assay reproducibility (Eastwood et al., (2006) J Biomol Screen, 11: 253-261). The overall MSR was determined to be 2.1 and a moving MSR (last six run MSR overtime) has been <2.

BRD4 (BDII_E352-M457) = target: T2, BRD4 (BDII_E352-M457) (Homo sapiens, UniProt O60885); assay: TR-FRET bromodomain binding assay, second bromodomain of BRD4; conditions: 30 nM probe
T2 construct: protocol; made in house
Summary of the method: as §1

[2] = TR-FRET assay protocol E (compound 9.19 μM-150 pM)
[3] = TR-FRET assay protocol G (compound 0.92 μM-15 pM)

EC50 [1] [nM] | Ki (BRD4 (BDI_K57-E168); [3]) [nM] | Ki (BRD4 (BDII_E352-M457); [3]) [nM] | Structure (SMILES) | Ki (BRD4 (BDI_K57-E168); [2]) [nM] | Ki (BRD4 (BDII_E352-M457); [2]) [nM]
343 |  |  | Cn1cc2c3c(c[nH]c3c1=O)C(CCc1ccccc1)Nc1ccc(CS(C)(=O)=O)cc1-2 (stereo not drawn) [Example 18, 10-methyl-7-((methylsulfonyl)methyl)-3-phenethyl-3,4-dihydro-1H-1,4,10-triazadibenzo[cd,f]azulen-11(10H)-one] | 145 | 24.1
1.05 | 4.43 | 3 | Cn1cc2c3c(c[nH]c3c1=O)CN(c1ccc(F)cc1)c1ncc(N)cc1-2 [Example 21, 7-amino-4-(4-fluorophenyl)-10-methyl-3,4-dihydro-1H-1,4,5,10-tetraazadibenzo[cd,f]azulen-11(10H)-one] |  | 
1.38 | 1.01 | 1.14 | Cn1cc2c3c(c[nH]c3c1=O)CN(c1ccc(F)cc1)c1ncc(F)cc1-2 [Example 32, 7-fluoro-4-(4-fluorophenyl)-10-methyl-3,4-dihydro-1H-1,4,5,10-tetraazadibenzo[cd,f]azulen-11(10H)-one] |  | 
495 | 38.3 | 22.8 | Cc1cnc2c(c1)-c1cn(C)c(=O)c3[nH]cc(c13)C(c1ccccc1)N2c1ccc(F)cc1 (stereo not drawn) [Example 33, 4-(4-fluorophenyl)-7,10-dimethyl-3-phenyl-3,4-dihydro-1H-1,4,5,10-tetraazadibenzo[cd,f]azulen-11(10H)-one] |  | 
> 1000 | 49.5 | 57.8 | CN1CCN(C(=O)C2c3c[nH]c4c(=O)n(C)cc(c34)-c3cc(CS(C)(=O)=O)ccc3N2c2ccc(F)cc2)CC1 (stereo not drawn) [Example 41, 4-(4-fluorophenyl)-10-methyl-3-(4-methylpiperazine-1-carbonyl)-7-((methylsulfonyl)methyl)-3,4-dihydro-1H-1,4,10-triazadibenzo[cd,f]azulen-11(10H)-one] |  | 
48.7 | 2.61 | 2.47 | Cn1cc2c3c(c[nH]c3c1=O)CN(C(=O)NC1CCCC1)c1ccc(CS(C)(=O)=O)cc1-2 [Example 44, N-cyclopentyl-10-methyl-7-((methylsulfonyl)methyl)-11-oxo-10,11-dihydro-1H-1,4,10-triazadibenzo[cd,f]azulene-4(3H)-carboxamide] |  | 
141 | 3.92 | 3.75 | CCNC(=O)N1Cc2c[nH]c3c(=O)n(C)cc(c23)-c2cc(CS(C)(=O)=O)ccc21 [Example 45, N-ethyl-10-methyl-7-((methylsulfonyl)methyl)-11-oxo-10,11-dihydro-1H-1,4,10-triazadibenzo[cd,f]azulene-4(3H)-carboxamide] |  | 
8.33 | 1.37 | 1.27 | CCCCN1Cc2c[nH]c3c(=O)n(C)cc(c23)-c2cc(F)cc(F)c21 [Example 47, 4-butyl-5,7-difluoro-10-methyl-3,4-dihydro-1H-1,4,10-triazadibenzo[cd,f]azulen-11(10H)-one] |  | 
4.41 | 1.12 | 0.855 | CCCN1Cc2c[nH]c3c(=O)n(C)cc(c23)-c2cc(F)cc(F)c21 [Example 48, 5,7-difluoro-10-methyl-4-propyl-3,4-dihydro-1H-1,4,10-triazadibenzo[cd,f]azulen-11(10H)-one] |  | 
8.63 | 1.99 | 2.21 | Cn1cc2c3c(c[nH]c3c1=O)CN(CC1CC1)c1c(F)cc(F)cc1-2 [Example 49, 4-(cyclopropylmethyl)-5,7-difluoro-10-methyl-3,4-dihydro-1H-1,4,10-triazadibenzo[cd,f]azulen-11(10H)-one] |  | 
42.2 | 3.44 | 5.51 | COC(=O)CCCN1Cc2c[nH]c3c(=O)n(C)cc(c23)-c2cc(F)cc(F)c21 [Example 50, methyl 4-(5,7-difluoro-10-methyl-11-oxo-10,11-dihydro-1H-1,4,10-triazadibenzo[cd,f]azulen-4(3H)-yl)butanoate] |  | 
174 | 4.43 | 13.2 | Cn1cc2c3c(c[nH]c3c1=O)CN(CCCc1ccccc1)c1c(F)cc(F)cc1-2 [Example 51, 5,7-difluoro-10-methyl-4-(3-phenylpropyl)-3,4-dihydro-1H-1,4,10-triazadibenzo[cd,f]azulen-11(10H)-one] |  | 
247 | 17.4 | 4.99 | Cc1ccccc1NC(=O)N1Cc2c[nH]c3c(=O)n(C)cc(c23)-c2cc(CS(C)(=O)=O)ccc21 [Example 52, 10-methyl-7-((methylsulfonyl)methyl)-11-oxo-N-(o-tolyl)-10,11-dihydro-1H-1,4,10-triazadibenzo[cd,f]azulene-4(3H)-carboxamide] |  | 
146 | 8.96 | 15.9 | Cn1cc2c3c(c[nH]c3c1=O)CN(CCc1ccccc1)c1c(F)cc(F)cc1-2 [Example 55, 5,7-difluoro-10-methyl-4-phenethyl-3,4-dihydro-1H-1,4,10-triazadibenzo[cd,f]azulen-11(10H)-one] |  | 
197 | 14.4 | 35.3 | Cn1cc2c3c(c[nH]c3c1=O)CN(CCc1ccc3c(c1)OCO3)c1c(F)cc(F)cc1-2 [Example 56, 4-(2-(benzo[d][1,3]dioxol-5-yl)ethyl)-5,7-difluoro-10-methyl-3,4-dihydro-1H-1,4,10-triazadibenzo[cd,f]azulen-11(10H)-one] |  | 
> 1000 | 21.1 | 3.74 | Cc1cccc(C)c1NC(=O)N1Cc2c[nH]c3c(=O)n(C)cc(c23)-c2cc(CS(C)(=O)=O)ccc21 [Example 61, N-(2,6-dimethylphenyl)-10-methyl-7-((methylsulfonyl)methyl)-11-oxo-10,11-dihydro-1H-1,4,10-triazadibenzo[cd,f]azulene-4(3H)-carboxamide] |  | 
910 | 7.23 | 4.73 | COc1ccc(NC(=O)N2Cc3c[nH]c4c(=O)n(C)cc(c34)-c3cc(CS(C)(=O)=O)ccc32)cc1 [Example 62, N-(4-methoxyphenyl)-10-methyl-7-((methylsulfonyl)methyl)-11-oxo-10,11-dihydro-1H-1,4,10-triazadibenzo[cd,f]azulene-4(3H)-carboxamide] |  | 
84.6 | 2.69 | 2.85 | CCCNC(=O)N1Cc2c[nH]c3c(=O)n(C)cc(c23)-c2cc(CS(C)(=O)=O)ccc21 [Example 64, 10-methyl-7-((methylsulfonyl)methyl)-11-oxo-N-propyl-10,11-dihydro-1H-1,4,10-triazadibenzo[cd,f]azulene-4(3H)-carboxamide] |  | 
40.1 | 12.7 | 4.22 | Cn1cc2c3c(c[nH]c3c1=O)CN(C(=O)Nc1ccc(F)cc1F)c1ccc(CS(C)(=O)=O)cc1-2 [Example 68, N-(2,4-difluorophenyl)-10-methyl-7-((methylsulfonyl)methyl)-11-oxo-10,11-dihydro-1H-1,4,10-triazadibenzo[cd,f]azulene-4(3H)-carboxamide] |  | 
43.1 | 3.25 | 3.24 | CC(C)c1ccc(NC(=O)N2Cc3c[nH]c4c(=O)n(C)cc(c34)-c3cc(CS(C)(=O)=O)ccc32)cc1 [Example 69, N-(4-isopropylphenyl)-10-methyl-7-((methylsulfonyl)methyl)-11-oxo-10,11-dihydro-1H-1,4,10-triazadibenzo[cd,f]azulene-4(3H)-carboxamide] |  | 
131 | 7.41 | 1.88 | Cn1cc2c3c(c[nH]c3c1=O)CN(C(=O)Nc1c(F)cccc1F)c1ccc(CS(C)(=O)=O)cc1-2 [Example 70, N-(2,6-difluorophenyl)-10-methyl-7-((methylsulfonyl)methyl)-11-oxo-10,11-dihydro-1H-1,4,10-triazadibenzo[cd,f]azulene-4(3H)-carboxamide] |  | 

Structure (SMILES) | EC50 [1] [nM] | Ki (BRD4 (BDI_K57-E168); [3]) [nM] | Ki (BRD4 (BDII_E352-M457); [3]) [nM] | Ki (BRD4 (BDI_K57-E168); [2]) [nM] | Ki (BRD4 (BDII_E352-M457); [2]) [nM]
Cn1cc2c3c(c[nH]c3c1=O)CN(CC1CCN(C(=O)OC(C)(C)C)CC1)c1ccc(CS(C)(=O)=O)cc1-2 [Example 28] | 13.7 |  |  | 1.1 | 1.17
Cn1cc2c3c(c[nH]c3c1=O)CN(CC1CCNC1)c1ccc(CS(C)(=O)=O)cc1-2 (stereo not drawn) [Example 36] | > 1000 | 5.05 | 6.25 |  | 
COC1CCN(C(=O)C2c3c[nH]c4c(=O)n(C)cc(c34)-c3cc(CS(C)(=O)=O)ccc3N2c2ccc(F)cc2)CC1 (stereo not drawn) [Example 40] | 398 | 29.4 | 136 |  | 
Cn1cc2c3c(c[nH]c3c1=O)CN(C(=O)Nc1ccc(F)cc1)c1ccc(CS(C)(=O)=O)cc1-2 [Example 46] | 152 | 13.7 | 7.48 |  | 
